# Experimental data: patent publication US11254686B1 (Corvus Pharmaceuticals, Inc., priority 2017, dated 2022)
# Tests used:
# Assay type in all cases: biochemical
# adenosine A2B receptor = adenosine A2B receptor (Homo sapiens (Human), UniProt P29275); assay: Adenosine receptor activity assay (Table 1), A2B activity; settings: for Ratio: A2A activity to the A2B activity, A2A/A2B; for IC50: read-out: Ave A2B cAMP IC50
# adenosine A2A receptor = adenosine A2A receptor (Homo sapiens (Human), UniProt P29274); assay: Adenosine receptor activity assay (Table 1), A2A activity; settings: read-out: Ave A2A cAMP IC50
# adenosine A1 receptor = adenosine A1 receptor (Homo sapiens (Human), UniProt P30542); assay: Adenosine receptor activity assay (Table 1), A1 cAMP
# Procedure: (§1) Table 1. Compounds (e.g., Adenosine Receptor modulators) and activity assay results. The legend is as follows: A=<10 nM; B=10-50 nM; C=50-100 nM; D=100-500; and E=>500 nM. The ratio corresponds to the A2A activity to the A2B activity; or A2A/A2B.
# adenosine A3 receptor = adenosine A3 receptor (Homo sapiens (Human), UniProt P0DMS8); assay: Adenosine receptor activity assay (Table 1), A3 cAMP
# Procedure: as §1
# Sequence of adenosine A2A receptor (P29274 whole entry): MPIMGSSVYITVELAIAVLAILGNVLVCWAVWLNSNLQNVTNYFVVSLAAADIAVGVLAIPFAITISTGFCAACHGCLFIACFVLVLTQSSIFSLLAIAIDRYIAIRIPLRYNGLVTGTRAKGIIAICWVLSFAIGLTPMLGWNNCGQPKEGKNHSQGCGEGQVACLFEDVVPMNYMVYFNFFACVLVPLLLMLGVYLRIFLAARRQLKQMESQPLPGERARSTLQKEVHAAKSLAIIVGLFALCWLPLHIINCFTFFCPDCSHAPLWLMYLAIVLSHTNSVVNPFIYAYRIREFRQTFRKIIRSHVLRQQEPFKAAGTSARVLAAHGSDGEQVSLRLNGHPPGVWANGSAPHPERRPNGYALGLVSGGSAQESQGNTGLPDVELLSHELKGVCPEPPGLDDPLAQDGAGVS
# Sequence of adenosine A1 receptor (P30542 whole entry): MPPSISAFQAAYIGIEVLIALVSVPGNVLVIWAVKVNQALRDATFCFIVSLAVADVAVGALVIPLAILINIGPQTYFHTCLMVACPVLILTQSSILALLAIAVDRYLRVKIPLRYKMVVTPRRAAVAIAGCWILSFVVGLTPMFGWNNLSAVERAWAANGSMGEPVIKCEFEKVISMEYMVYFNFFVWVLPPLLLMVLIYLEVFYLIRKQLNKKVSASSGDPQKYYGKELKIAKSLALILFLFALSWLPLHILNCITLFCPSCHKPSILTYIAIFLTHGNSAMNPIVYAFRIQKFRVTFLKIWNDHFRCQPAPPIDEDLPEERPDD
# Sequence of adenosine A2B receptor (P29275 whole entry): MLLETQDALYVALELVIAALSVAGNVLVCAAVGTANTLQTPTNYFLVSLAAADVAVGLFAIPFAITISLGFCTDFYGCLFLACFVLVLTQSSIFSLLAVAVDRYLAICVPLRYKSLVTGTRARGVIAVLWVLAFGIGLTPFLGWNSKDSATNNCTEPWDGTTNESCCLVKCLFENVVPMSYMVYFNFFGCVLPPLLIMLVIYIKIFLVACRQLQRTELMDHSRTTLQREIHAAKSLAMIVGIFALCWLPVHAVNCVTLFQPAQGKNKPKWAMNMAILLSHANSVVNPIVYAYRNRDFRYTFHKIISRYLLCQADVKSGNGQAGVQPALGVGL
# Sequence of adenosine A3 receptor (P0DMS8 whole entry): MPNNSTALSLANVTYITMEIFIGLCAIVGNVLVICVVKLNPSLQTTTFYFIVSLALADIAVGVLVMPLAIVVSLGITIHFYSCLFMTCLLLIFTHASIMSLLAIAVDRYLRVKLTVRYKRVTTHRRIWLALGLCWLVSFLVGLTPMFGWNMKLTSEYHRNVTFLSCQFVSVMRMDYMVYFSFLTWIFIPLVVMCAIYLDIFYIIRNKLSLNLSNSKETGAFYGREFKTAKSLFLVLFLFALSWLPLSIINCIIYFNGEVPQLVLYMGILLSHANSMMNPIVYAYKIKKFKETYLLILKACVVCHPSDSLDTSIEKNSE
SMILES,Ratio (adenosine A2B receptor),IC50 (adenosine A2B receptor),IC50 (adenosine A2A receptor),IC50 (adenosine A1 receptor),IC50 (adenosine A3 receptor)
"C[C@H](Nc1nc(C(=O)N2CCC(C(=O)NOC(C)(C)C)C2)c2sccc2n1)c1cncc(F)c1 (stereo partly drawn) [Example Z549, N-(tert-Butoxy)-1-(2-(((S)-1-(5-fluoropyridin-3-yl)ethyl)amino)thieno[3,2-d]pyrimidine-4-carbonyl)pyrrolidine-3-carboxamide]",0.63,10 to 50 nM,< 10 nM,> 500 nM,> 500 nM
"Cc1cc2nc(N[C@@H](C)c3cncc(F)c3)nc(C(=O)N3CC[C@H](CN)C3)c2s1 [Example Z554, ((R)-3-(Aminomethyl)pyrrolidin-1-yl)(2-(((S)-1-(5-fluoropyridin-3-yl)ethyl)amino)-6-methylthieno[3,2-d]pyrimidin-4-yl)methanone]",547.59,< 10 nM,> 500 nM,> 500 nM,> 500 nM
"CN[C@@H]1CCN(C(=O)c2nc(N[C@@H](C)c3cncc(F)c3)nc3cc(C)sc23)C1 [Example Z560, (2-(((S)-1-(5-Fluoropyridin-3-yl)ethyl)amino)-6-methylthieno[3,2-d]pyrimidin-4-yl)((R)-3-(methylamino)pyrrolidin-1-yl)methanone]",59.47,50 to 100 nM,> 500 nM,> 500 nM,> 500 nM
"CN[C@H]1CCN(C(=O)c2nc(N[C@@H](C)c3cncc(F)c3)nc3cc(C)sc23)C1 [Example Z561, (2-(((S)-1-(5-Fluoropyridin-3-yl)ethyl)amino)-6-methylthieno[3,2-d]pyrimidin-4-yl)((S)-3-(methylamino)pyrrolidin-1-yl)methanone]",140.19,50 to 100 nM,> 500 nM,> 500 nM,> 500 nM
"Cc1cc2nc(N[C@@H](C)c3cncc(F)c3)nc(C(=O)NCCC3CCN(C)CC3)c2s1 [Example Z562, (S)-2-((1-(5-Fluoropyridin-3-yl)ethyl)amino)-6-methyl-N-(2-(1-methylpiperidin-4-yl)ethyl)thieno[3,2-d]pyrimidine-4-carboxamide]",127.97,10 to 50 nM,> 500 nM,> 500 nM,> 500 nM
"Cc1cc2nc(N[C@@H](C)c3cncc(F)c3)nc(C(=O)N3CC(C(=O)OC(C)(C)C)C3)c2s1 [Example Z573, tert-Butyl (S)-1-(2-((1-(5-fluoropyridin-3-yl)ethyl)amino)-6-methylthieno[3,2-d]pyrimidine-4-carbonyl)azetidine-3-carboxylate]",3.44,10 to 50 nM,100 to 500 nM,> 500 nM,> 500 nM
"Cc1cc2nc(N[C@@H](C)c3cncc(F)c3)nc(C(=O)N3CC(CS(C)(=O)=O)C3)c2s1 [Example Z575, (S)-(2-((1-(5-Fluoropyridin-3-yl)ethyl)amino)-6-methylthieno[3,2-d]pyrimidin-4-yl)(3-((methylsulfonyl)methyl)azetidin-1-yl)methanone]",75.64,< 10 nM,> 500 nM,> 500 nM,> 500 nM

# Now from value to compound:
Ratio (adenosine A2B receptor),IC50 (adenosine A2B receptor),IC50 (adenosine A2A receptor),IC50 (adenosine A1 receptor),IC50 (adenosine A3 receptor),SMILES
1.45,10 to 50 nM,10 to 50 nM,> 500 nM,50 to 100 nM,"Cc1cc2nc(N[C@@H](C)c3cncc(F)c3)nc(C(=O)N3CC(NC(=O)C4CCC4)C3)c2s1 [Example Z542, (S)—N-(1-(2-((1-(5-Fluoropyridin-3-yl)ethyl)amino)-6-methylthieno[3,2-d]pyrimidine-4-carbonyl)azetidin-3-yl)cyclobutanecarboxamide]"
18.71,,100 to 500 nM,> 500 nM,> 500 nM,"CC(=O)NC1CN(C(=O)c2nc(N[C@@H](C)c3cncc(F)c3)nc3cc(C)sc23)C1 [Example Z543, (S)—N-(1-(2-((1-(5-Fluoropyridin-3-yl)ethyl)amino)-6-methylthieno[3,2-d]pyrimidine-4-carbonyl)azetidin-3-yl)acetamide]"
3.52,< 10 nM,10 to 50 nM,> 500 nM,> 500 nM,"Cc1cc2nc(N[C@@H](C)c3cncc(F)c3)nc(C(=O)N3CC(NC(=O)c4ccoc4)C3)c2s1 [Example Z546, (S)—N-(1-(2-((1-(5-Fluoropyridin-3-yl)ethyl)amino)-6-methylthieno[3,2-d]pyrimidine-4-carbonyl)azetidin-3-yl)furan-3-carboxamide]"
1.68,10 to 50 nM,10 to 50 nM,> 500 nM,> 500 nM,"C[C@H](Nc1nc(C(=O)N2CC(CN(C)C(=O)C(C)(C)C)C2)c2sccc2n1)c1cncc(F)c1 [Example Z551, (S)—N-((1-(2-((1-(5-Fluoropyridin-3-yl)ethyl)amino)thieno[3,2-d]pyrimidine-4-carbonyl)azetidin-3-yl)methyl)-N-methylpivalamide]"
2.32,10 to 50 nM,10 to 50 nM,> 500 nM,100 to 500 nM,"Cc1cc2nc(N[C@@H](C)c3ccccn3)nc(C(=O)N3CC(C(=O)OC(C)(C)C)C3)c2s1 [Example Z552, tert-Butyl (S)-1-(6-methyl-2-((1-(pyridin-2-yl)ethyl)amino)thieno[3,2-d]pyrimidine-4-carbonyl)azetidine-3-carboxylate]"
3.87,< 10 nM,10 to 50 nM,> 500 nM,100 to 500 nM,"COCC1CN(C(=O)c2nc(N[C@@H](C)c3ccccn3)nc3c(C)csc23)C1 [Example Z553, (S)-(3-(methoxymethyl)azetidin-1-yl)(7-methyl-2-((1-(pyridin-2-yl)ethyl)amino)thieno[3,2-d]pyrimidin-4-yl)methanone]"
1.92,10 to 50 nM,10 to 50 nM,> 500 nM,> 500 nM,"C[C@H](Nc1nc(C(=O)N2CC(NC(=O)CC(C)(C)C)C2)c2sccc2n1)c1cncc(F)c1 [Example Z557, (S)—N-(1-(2-((1-(5-Fluoropyridin-3-yl)ethyl)amino)thieno[3,2-d]pyrimidine-4-carbonyl)azetidin-3-yl)-3,3-dimethylbutanamide]"
3.43,< 10 nM,10 to 50 nM,> 500 nM,> 500 nM,"CC(C)C(=O)NC1CN(C(=O)c2nc(N[C@@H](C)c3cncc(F)c3)nc3ccsc23)C1 [Example Z558, (S)—N-(1-(2-((1-(5-Fluoropyridin-3-yl)ethyl)amino)thieno[3,2-d]pyrimidine-4-carbonyl)azetidin-3-yl)isobutyramide]"
1.93,10 to 50 nM,10 to 50 nM,> 500 nM,100 to 500 nM,"Cc1csc2c(C(=O)N3CC(NC(=O)C(C)(C)C)C3)nc(N[C@@H](C)c3ccccn3)nc12 [Example Z559, (S)—N-(1-(7-Methyl-2-((1-(pyridin-2-yl)ethyl)amino)thieno[3,2-d]pyrimidine-4-carbonyl)azetidin-3-yl)pivalamide]"
1.51,10 to 50 nM,10 to 50 nM,> 500 nM,> 500 nM,"C[C@H](Nc1nc(C(=O)N2CC(CC(=O)NC(C)(C)C)C2)c2sccc2n1)c1cncc(F)c1 [Example Z571, (S)—N-(tert-Butyl)-2-(1-(2-((1-(5-fluoropyridin-3-yl)ethyl)amino)thieno[3,2-d]pyrimidine-4-carbonyl)azetidin-3-yl)acetamide]"
